This passage reports HC50 results from ChEMBL document CHEMBL1147199, “Exploration of the correlation between the structure, hemolytic activity, and cytotoxicity of steroid saponins” (Bioorg Med Chem, 2007).

SMILES strings stand for the structures. Bounds are passed on as bounds.

This data set can be described thus: Cytotoxicity against human erythrocytes assessed as hemolytic activity after 60 mins. It is filed as cell-based, Erythrocyte. The following applies: read-out: HD50.
Regarding `C[C@@H]1CC[C@@]2(OC1)O[C@H]1C[C@H]3[C@@H]4CC=C5C[C@@H](O[C@@H]6O[C@H](CNC(=O)c7ccc([N+](=O)[O-])cc7)[C@@H](O[C@H]7O[C@H](C)[C@@H](O)[C@H](O)[C@@H]7O)[C@H](O)[C@H]6O[C@H]6O[C@H](C)[C@@H](O)[C@H](O)[C@@H]6O)CC[C@]5(C)[C@H]4CC[C@]3(C)[C@H]1[C@@H]2C`, the HC50 at 1 h was 39 µM.
As for `C[C@@H]1CC[C@@]2(OC1)O[C@H]1C[C@H]3[C@@H]4CC=C5C[C@@H](O[C@@H]6O[C@H](CNS(=O)(=O)c7cccc8c(N(C)C)cccc78)[C@@H](O[C@H]7O[C@H](C)[C@@H](O)[C@H](O)[C@@H]7O)[C@H](O)[C@H]6O[C@H]6O[C@H](C)[C@@H](O)[C@H](O)[C@@H]6O)CC[C@]5(C)[C@H]4CC[C@]3(C)[C@H]1[C@@H]2C`, the HC50 at 1 h was 6.9 µM.
Take `C[C@@H]1CC[C@@]2(OC1)O[C@H]1C[C@H]3[C@@H]4CC=C5C[C@@H](O[C@@H]6O[C@H](CO)[C@@H](O[C@H]7O[C@H](C)[C@@H](OCCNC(=O)OCC8c9ccccc9-c9ccccc98)[C@H](O)[C@@H]7O)[C@H](O)[C@H]6O[C@H]6O[C@H](C)[C@@H](O)[C@H](O)[C@@H]6O)CC[C@]5(C)[C@H]4CC[C@]3(C)[C@H]1[C@@H]2C`: the HC50 at 1 h was 3 µM.
Consider `C[C@@H]1CC[C@@]2(OC1)O[C@H]1C[C@H]3[C@@H]4CC=C5C[C@@H](O[C@@H]6O[C@H](CO)[C@@H](O[C@H]7O[C@H](C)[C@@H](OCCNC(=O)c8ccc([N+](=O)[O-])cc8)[C@H](O)[C@@H]7O)[C@H](O)[C@H]6O[C@H]6O[C@H](C)[C@@H](O)[C@H](O)[C@@H]6O)CC[C@]5(C)[C@H]4CC[C@]3(C)[C@H]1[C@@H]2C`, for which the HC50 at 1 h stood at 4.9 µM.
With `C[C@@H]1CC[C@@]2(OC1)O[C@H]1C[C@H]3[C@@H]4CC=C5C[C@@H](O[C@@H]6O[C@H](CO)[C@@H](O[C@H]7O[C@H](C)[C@@H](OCCNS(=O)(=O)c8cccc9c(N(C)C)cccc89)[C@H](O)[C@@H]7O)[C@H](O)[C@H]6O[C@H]6O[C@H](C)[C@@H](O)[C@H](O)[C@@H]6O)CC[C@]5(C)[C@H]4CC[C@]3(C)[C@H]1[C@@H]2C`, the HC50 at 1 h was 1.3 µM.
As for `C/C=C/C=C/C(=O)NCCO[C@H]1[C@H](O)[C@H](O)[C@@H](O[C@H]2[C@H](O)[C@@H](O[C@H]3O[C@H](C)[C@@H](O)[C@H](O)[C@@H]3O)[C@H](O[C@H]3CC[C@@]4(C)C(=CC[C@H]5[C@@H]6C[C@@H]7O[C@]8(CC[C@@H](C)CO8)[C@@H](C)[C@@H]7[C@@]6(C)CC[C@@H]54)C3)O[C@@H]2CO)O[C@@H]1C`, the HC50 at 1 h was 1.6 µM.
`C[C@@H]1CC[C@@]2(OC1)O[C@H]1C[C@H]3[C@@H]4CC=C5C[C@@H](O[C@@H]6O[C@H](CN)[C@@H](O[C@H]7O[C@H](C)[C@@H](O)[C@H](O)[C@@H]7O)[C@H](O)[C@H]6O[C@H]6O[C@H](C)[C@@H](O)[C@H](O)[C@@H]6O)CC[C@]5(C)[C@H]4CC[C@]3(C)[C@H]1[C@@H]2C`: the HC50 at 1 h is 24.8 µM.
The same measure for `C[C@@H]1CC[C@@]2(OC1)O[C@H]1C[C@H]3[C@@H]4CC[C@H]5C[C@@H](O[C@@H]6O[C@H](CO)[C@@H](O[C@H]7O[C@H](C)[C@@H](O)[C@H](O)[C@@H]7O)[C@H](O)[C@H]6O[C@H]6O[C@H](C)[C@@H](O)[C@H](O)[C@@H]6O)[C@H](O)C[C@]5(C)[C@H]4CC[C@]3(C)[C@H]1[C@@H]2C`: 13.1 µM; for `C[C@@H]1CC[C@@]2(OC1)O[C@H]1C[C@H]3[C@@H]4CC=C5C[C@@H](O[C@@H]6O[C@H](CO)[C@@H](O)[C@H](O)[C@H]6O[C@@H]6O[C@@H](C)[C@H](O)[C@@H](O)[C@H]6O)CC[C@]5(C)[C@H]4CC[C@]3(C)[C@H]1[C@@H]2C` [OPHIOPOGONIN C]: 21.6 µM.
Regarding `C[C@@H]1CC[C@@]2(OC1)O[C@H]1C[C@H]3[C@@H]4CC=C5C[C@@H](O[C@@H]6O[C@H](CNC(=O)c7ccccc7I)[C@@H](O[C@H]7O[C@H](C)[C@@H](O)[C@H](O)[C@@H]7O)[C@H](O)[C@H]6O[C@H]6O[C@H](C)[C@@H](O)[C@H](O)[C@@H]6O)CC[C@]5(C)[C@H]4CC[C@]3(C)[C@H]1[C@@H]2C`, the HC50 at 1 h turned out to be 7.4 µM.
Consider `CCCCCCCCCCCCCCCCCC(=O)NCCO[C@H]1[C@H](O)[C@H](O)[C@@H](O[C@H]2[C@H](O)[C@@H](O[C@H]3O[C@H](C)[C@@H](O)[C@H](O)[C@@H]3O)[C@H](O[C@H]3CC[C@@]4(C)C(=CC[C@H]5[C@@H]6C[C@@H]7O[C@]8(CC[C@@H](C)CO8)[C@@H](C)[C@@H]7[C@@]6(C)CC[C@@H]54)C3)O[C@@H]2CO)O[C@@H]1C`, for which the HC50 at 1 h is over 50 µg/mL.
Regarding `C[C@@H]1CC[C@@]2(OC1)O[C@H]1C[C@H]3[C@@H]4CC=C5C[C@@H](O[C@@H]6O[C@H](CO)[C@@H](O[C@H]7O[C@H](C)[C@@H](OCCN)[C@H](O)[C@@H]7O)[C@H](O)[C@H]6O[C@H]6O[C@H](C)[C@@H](O)[C@H](O)[C@@H]6O)CC[C@]5(C)[C@H]4CC[C@]3(C)[C@H]1[C@@H]2C`, the HC50 at 1 h worked out at 2.6 µM.
In the case of `CCCCCCCCCCCCCC(=O)NC[C@H]1O[C@@H](O[C@H]2CC[C@@]3(C)C(=CC[C@H]4[C@@H]5C[C@@H]6O[C@]7(CC[C@@H](C)CO7)[C@@H](C)[C@@H]6[C@@]5(C)CC[C@@H]43)C2)[C@H](O[C@H]2O[C@H](C)[C@@H](O)[C@H](O)[C@@H]2O)[C@@H](O)[C@@H]1O[C@H]1O[C@H](C)[C@@H](O)[C@H](O)[C@@H]1O`, the HC50 at 1 h is over 50 µg/mL.
With `C[C@@H]1CC[C@@]2(OC1)O[C@H]1C[C@H]3[C@@H]4CC=C5C[C@@H](O[C@@H]6O[C@H](CO)[C@@H](O[C@H]7O[C@H](CO)[C@@H](O)[C@@H]7O)[C@H](O)[C@H]6O[C@H]6O[C@H](C)[C@@H](O)[C@H](O)[C@@H]6O)CC[C@]5(C)[C@H]4CC[C@]3(C)[C@H]1[C@@H]2C` [POLYPHILLIN D], the HC50 at 1 h is 3.9 µM.
`C[C@@H]1CC[C@@]2(OC1)O[C@H]1C[C@H]3[C@@H]4CC=C5C[C@@H](O[C@@H]6O[C@H](CN=[N+]=[N-])[C@@H](O[C@H]7O[C@H](C)[C@@H](O)[C@H](O)[C@@H]7O)[C@H](O)[C@H]6O[C@H]6O[C@H](C)[C@@H](O)[C@H](O)[C@@H]6O)CC[C@]5(C)[C@H]4CC[C@]3(C)[C@H]1[C@@H]2C`: the HC50 at 1 h was over 50 µg/mL.
With `CCCCCCCCCCCCCCCCCC(=O)NC[C@H]1O[C@@H](O[C@H]2CC[C@@]3(C)C(=CC[C@H]4[C@@H]5C[C@@H]6O[C@]7(CC[C@@H](C)CO7)[C@@H](C)[C@@H]6[C@@]5(C)CC[C@@H]43)C2)[C@H](O[C@H]2O[C@H](C)[C@@H](O)[C@H](O)[C@@H]2O)[C@@H](O)[C@@H]1O[C@H]1O[C@H](C)[C@@H](O)[C@H](O)[C@@H]1O`, the HC50 at 1 h was over 50 µg/mL.
With `C[C@@H]1CC[C@@]2(OC1)O[C@H]1C[C@H]3[C@@H]4CC=C5C[C@@H](O[C@@H]6O[C@H](CO)[C@@H](O[C@@H]7O[C@@H](C)[C@H](O)[C@@H](O)[C@H]7O)[C@H](O)[C@H]6O)CC[C@]5(C)[C@H]4CC[C@]3(C)[C@H]1[C@@H]2C`, the HC50 at 1 h is 27.3 µM.
On to `CC(=O)OC[C@H]1O[C@H](O[C@H]2[C@H](O)[C@@H](O[C@H]3O[C@H](C)[C@@H](O)[C@H](O)[C@@H]3O)[C@H](O[C@H]3CC[C@@]4(C)C(=CC[C@H]5[C@@H]6C[C@@H]7O[C@]8(CC[C@@H](C)CO8)[C@@H](C)[C@@H]7[C@@]6(C)CC[C@@H]54)C3)O[C@@H]2CO)[C@@H](O)[C@@H]1OC(C)=O`, for which the HC50 at 1 h amounted to 2.7 µM.
Turning to `CC(=O)O[C@@H]1[C@@H](O)[C@@H](O)[C@H](O[C@H]2[C@H](O)[C@@H](O)[C@H](O[C@H]3CC[C@@]4(C)C(=CC[C@H]5[C@@H]6C[C@@H]7O[C@]8(CC[C@@H](C)CO8)[C@@H](C)[C@@H]7[C@@]6(C)CC[C@@H]54)C3)O[C@@H]2CO)O[C@H]1C`, the HC50 at 1 h was 29.3 µM.
In the case of `CCCCCC(=O)O[C@H]1[C@H](O)[C@H](O)[C@@H](O[C@H]2[C@H](O)[C@@H](O[C@H]3O[C@H](C)[C@@H](O)[C@H](O)[C@@H]3O)[C@H](O[C@H]3CC[C@@]4(C)C(=CC[C@H]5[C@@H]6C[C@@H]7O[C@]8(CC[C@@H](C)CO8)[C@@H](C)[C@@H]7[C@@]6(C)CC[C@@H]54)C3)O[C@@H]2CO)O[C@@H]1C`, the HC50 at 1 h turned out to be 2.2 µM.
With `C[C@@H]1CC[C@@]2(OC1)O[C@H]1C[C@H]3[C@@H]4CC=C5C[C@@H](O[C@@H]6O[C@H](CO)[C@@H](O[C@H]7O[C@H](C)[C@@H](OCCNC(=O)/C=C/c8ccccc8)[C@H](O)[C@@H]7O)[C@H](O)[C@H]6O[C@H]6O[C@H](C)[C@@H](O)[C@H](O)[C@@H]6O)CC[C@]5(C)[C@H]4CC[C@]3(C)[C@H]1[C@@H]2C`, the HC50 at 1 h stood at 1.5 µM.
Take `C=CCCCCCCCCC(=O)NCCO[C@H]1[C@H](O)[C@H](O)[C@@H](O[C@H]2[C@H](O)[C@@H](O[C@H]3O[C@H](C)[C@@H](O)[C@H](O)[C@@H]3O)[C@H](O[C@H]3CC[C@@]4(C)C(=CC[C@H]5[C@@H]6C[C@@H]7O[C@]8(CC[C@@H](C)CO8)[C@@H](C)[C@@H]7[C@@]6(C)CC[C@@H]54)C3)O[C@@H]2CO)O[C@@H]1C`: the HC50 at 1 h was determined as 3.8 µM.
With `C[C@@H]1CC[C@@]2(OC1)O[C@H]1C[C@H]3[C@@H]4CC=C5C[C@@H](O[C@@H]6O[C@H](CNC(=O)COc7ccccc7)[C@@H](O[C@H]7O[C@H](C)[C@@H](O)[C@H](O)[C@@H]7O)[C@H](O)[C@H]6O[C@H]6O[C@H](C)[C@@H](O)[C@H](O)[C@@H]6O)CC[C@]5(C)[C@H]4CC[C@]3(C)[C@H]1[C@@H]2C`, the HC50 at 1 h is 9.4 µM.
